Measurements as given in PubChem BioAssay (NCI).
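At the GI50, growth is halved. Definition used: TGI = concentration required for complete inhibition of growth.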

Assays:
Assay in all cases: NCI-60 cell line screen, 384-well format; in the data active = GI50 below about 0.43 µM; inactive = the rest
786-0 renal = test system: 786-0 renal
A498 renal = test system: A498 renal
A549 NSCLC = test system: A549 NSCLC
ACHN renal = test system: ACHN renal
CAKI-1 renal = test system: CAKI-1 renal
CCRF-CEM leukemia = test system: CCRF-CEM leukemia
COLO 205 colon = test system: COLO 205 colon
DU-145 prostate = test system: DU-145 prostate
EKVX NSCLC = test system: EKVX NSCLC
HCC-2998 colon = test system: HCC-2998 colon
HCT-116 colon = test system: HCT-116 colon
HL-60(TB) leukemia = test system: HL-60(TB) leukemia
HOP-62 NSCLC = test system: HOP-62 NSCLC
HOP-92 NSCLC = test system: HOP-92 NSCLC
HS 578T breast = test system: HS 578T breast
HT29 colon = test system: HT29 colon
IGROV1 ovarian = test system: IGROV1 ovarian
K-562 leukemia = test system: K-562 leukemia
KM12 colon = test system: KM12 colon
LOX IMVI melanoma = test system: LOX IMVI melanoma
M14 melanoma = test system: M14 melanoma
MCF7 breast = test system: MCF7 breast
MDA-MB-435 melanoma = test system: MDA-MB-435 melanoma
MOLT-4 leukemia = test system: MOLT-4 leukemia
NCI-H226 lung = test system: NCI-H226 lung
NCI-H23 lung = test system: NCI-H23 lung
NCI-H460 NSCLC = test system: NCI-H460 NSCLC
NCI-H522 lung = test system: NCI-H522 lung
NCI/ADR-RES ovarian = test system: NCI/ADR-RES ovarian
OVCAR-3 ovarian = test system: OVCAR-3 ovarian
OVCAR-4 ovarian = test system: OVCAR-4 ovarian
OVCAR-8 ovarian = test system: OVCAR-8 ovarian
PC-3 prostate = test system: PC-3 prostate
RPMI-8226 leukemia = test system: RPMI-8226 leukemia
RXF 393 renal = test system: RXF 393 renal
SF-268 CNS = test system: SF-268 CNS
SF-295 CNS = test system: SF-295 CNS
SF-539 CNS = test system: SF-539 CNS
SK-MEL-28 melanoma = test system: SK-MEL-28 melanoma
SN12C renal = test system: SN12C renal
SNB-75 CNS = test system: SNB-75 CNS
SR leukemia = test system: SR leukemia
SW-620 colon = test system: SW-620 colon
T-47D breast = test system: T-47D breast
UACC-257 melanoma = test system: UACC-257 melanoma
UACC-62 melanoma = test system: UACC-62 melanoma
UO-31 renal = test system: UO-31 renal

CC(C)n1c(=O)n(C)c2cnc3cc(F)c(-c4ccc(OCCCN5CCCCC5)nc4)cc3c21
> 100 µM: TGI (786-0 renal) | TGI (A498 renal) | TGI (A549 NSCLC) | TGI (ACHN renal) | TGI (COLO 205 colon) | TGI (DU-145 prostate) | TGI (EKVX NSCLC) | TGI (HCT-116 colon) | TGI (HOP-62 NSCLC) | TGI (HOP-92 NSCLC) | TGI (IGROV1 ovarian) | TGI (KM12 colon) | TGI (LOX IMVI melanoma) | TGI (M14 melanoma) | TGI (MCF7 breast) | TGI (MDA-MB-435 melanoma) | TGI (NCI-H226 lung) | TGI (NCI-H23 lung) | TGI (NCI-H460 NSCLC) | TGI (NCI/ADR-RES ovarian) | TGI (OVCAR-3 ovarian) | TGI (OVCAR-4 ovarian) | TGI (OVCAR-8 ovarian) | TGI (PC-3 prostate) | TGI (RXF 393 renal) | TGI (SF-268 CNS) | TGI (SF-295 CNS) | TGI (SF-539 CNS) | TGI (SK-MEL-28 melanoma) | TGI (SN12C renal) | TGI (SNB-75 CNS) | TGI (T-47D breast) | TGI (UACC-257 melanoma) | TGI (UACC-62 melanoma) | TGI (UO-31 renal)
> 80.3 µM: TGI (HCC-2998 colon)
> 82 µM: TGI (NCI-H522 lung)
19.4 µM: TGI (SR leukemia)
> 87.2 µM: TGI (HT29 colon)
> 40.4 µM: TGI (MOLT-4 leukemia)
inactive: GI50 ([…]-0 renal) > 77.4 µM | GI50 (A498 renal) > 73.4 µM | GI50 (A549 NSCLC) > 100 µM | GI50 (ACHN renal) > 60.2 µM | GI50 (CAKI-1 renal) 16.7 µM | GI50 (CCRF-CEM leukemia) 10.1 µM | GI50 (COLO 205 colon) > 100 µM | GI50 (DU-145 prostate) > 89.7 µM | GI50 (EKVX NSCLC) 11.6 µM | GI50 (HCC-2998 colon) 30.5 µM | GI50 (HCT-116 colon) 21.7 µM | GI50 (HL-60(TB) leukemia) 11.8 µM | GI50 (HOP-62 NSCLC) > 33.2 µM | GI50 (HOP-92 NSCLC) > 54.4 µM | GI50 (HS 578T breast) 3.91 µM | GI50 (HT29 colon) 22.3 µM | GI50 (IGROV1 ovarian) > 100 µM | GI50 (K-562 leukemia) 4.93 µM | GI50 (KM12 colon) 4.57 µM | GI50 (LOX IMVI melanoma) 72.5 µM | GI50 (M14 melanoma) > 75.7 µM | GI50 (MCF7 breast) > 56.4 µM | GI50 (MDA-MB-435 melanoma) > 100 µM | GI50 (MOLT-4 leukemia) 5.66 µM | GI50 (NCI-H226 lung) 14.3 µM | GI50 (NCI-H23 lung) > 77.1 µM | GI50 (NCI-H460 NSCLC) 18.6 µM | GI50 (NCI-H522 lung) 20.8 µM | GI50 (NCI/ADR-RES ovarian) > 100 µM | GI50 (OVCAR-3 ovarian) 38.9 µM | GI50 (OVCAR-4 ovarian) > 100 µM | GI50 (OVCAR-8 ovarian) > 43.4 µM | GI50 (PC-3 prostate) 19.6 µM | GI50 (RPMI-8226 leukemia) 6.13 µM | GI50 (RXF 393 renal) > 63.4 µM | GI50 (SF-268 CNS) 45.4 µM | GI50 (SF-295 CNS) > 100 µM | GI50 (SF-539 CNS) > 84.1 µM | GI50 (SK-MEL-28 melanoma) > 100 µM | GI50 (SN12C renal) 25.8 µM | GI50 (SNB-75 CNS) 20.6 µM | GI50 (SR leukemia) 7.14 µM | GI50 (SW-620 colon) 19.5 µM | GI50 (T-47D breast) > 48.5 µM | GI50 (UACC-257 melanoma) 36.3 µM | GI50 (UACC-62 melanoma) 31.9 µM | GI50 (UO-31 renal) 83.8 µM
> 46.7 µM: TGI (CCRF-CEM leukemia)
> 95.8 µM: TGI (CAKI-1 renal)
47 µM: TGI (HL-60(TB) leukemia)
> 46.8 µM: TGI (K-562 leukemia)
27.4 µM: TGI (HS 578T breast)
> 75.8 µM: TGI (SW-620 colon)
42.1 µM: TGI (RPMI-8226 leukemia)

CS(=O)(=O)c1ccc(Oc2cc(F)cc(C#N)c2)c2c1[C@H](O)C(F)(F)C2
> 100 µM: TGI (786-0 renal) | TGI (A498 renal) | TGI (A549 NSCLC) | TGI (ACHN renal) | TGI (CAKI-1 renal) | TGI (CCRF-CEM leukemia) | TGI (COLO 205 colon) | TGI (DU-145 prostate) | TGI (EKVX NSCLC) | TGI (HCC-2998 colon) | TGI (HCT-116 colon) | TGI (HL-60(TB) leukemia) | TGI (HOP-62 NSCLC) | TGI (HOP-92 NSCLC) | TGI (HS 578T breast) | TGI (HT29 colon) | TGI (IGROV1 ovarian) | TGI (K-562 leukemia) | TGI (KM12 colon) | TGI (LOX IMVI melanoma) | TGI (M14 melanoma) | TGI (MCF7 breast) | TGI (MDA-MB-435 melanoma) | TGI (MOLT-4 leukemia) | TGI (NCI-H226 lung) | TGI (NCI-H23 lung) | TGI (NCI-H460 NSCLC) | TGI (NCI-H522 lung) | TGI (NCI/ADR-RES ovarian) | TGI (OVCAR-3 ovarian) | TGI (OVCAR-4 ovarian) | TGI (OVCAR-8 ovarian) | TGI (PC-3 prostate) | TGI (RPMI-8226 leukemia) | TGI (RXF 393 renal) | TGI (SF-268 CNS) | TGI (SF-295 CNS) | TGI (SF-539 CNS) | TGI (SK-MEL-28 melanoma) | TGI (SN12C renal) | TGI (SNB-75 CNS) | TGI (SR leukemia) | TGI (SW-620 colon) | TGI (T-47D breast) | TGI (UACC-257 melanoma) | TGI (UACC-62 melanoma) | TGI (UO-31 renal)
inactive: GI50 ([…]-0 renal) > 100 µM | GI50 (A498 renal) > 100 µM | GI50 (A549 NSCLC) > 100 µM | GI50 (ACHN renal) > 100 µM | GI50 (CAKI-1 renal) > 78.9 µM | GI50 (CCRF-CEM leukemia) > 100 µM | GI50 (COLO 205 colon) > 100 µM | GI50 (DU-145 prostate) > 100 µM | GI50 (EKVX NSCLC) > 100 µM | GI50 (HCC-2998 colon) > 100 µM | GI50 (HCT-116 colon) > 100 µM | GI50 (HL-60(TB) leukemia) > 66 µM | GI50 (HOP-62 NSCLC) > 100 µM | GI50 (HOP-92 NSCLC) > 100 µM | GI50 (HS 578T breast) > 100 µM | GI50 (HT29 colon) > 100 µM | GI50 (IGROV1 ovarian) > 100 µM | GI50 (K-562 leukemia) > 100 µM | GI50 (KM12 colon) > 100 µM | GI50 (LOX IMVI melanoma) > 100 µM | GI50 (M14 melanoma) > 100 µM | GI50 (MCF7 breast) > 100 µM | GI50 (MDA-MB-435 melanoma) > 100 µM | GI50 (MOLT-4 leukemia) > 86.1 µM | GI50 (NCI-H226 lung) > 100 µM | GI50 (NCI-H23 lung) > 100 µM | GI50 (NCI-H460 NSCLC) > 100 µM | GI50 (NCI-H522 lung) > 100 µM | GI50 (NCI/ADR-RES ovarian) > 100 µM | GI50 (OVCAR-3 ovarian) > 100 µM | GI50 (OVCAR-4 ovarian) > 100 µM | GI50 (OVCAR-8 ovarian) > 100 µM | GI50 (PC-3 prostate) > 100 µM | GI50 (RPMI-8226 leukemia) > 100 µM | GI50 (RXF 393 renal) > 100 µM | GI50 (SF-268 CNS) > 100 µM | GI50 (SF-295 CNS) > 100 µM | GI50 (SF-539 CNS) > 100 µM | GI50 (SK-MEL-28 melanoma) > 100 µM | GI50 (SN12C renal) > 100 µM | GI50 (SNB-75 CNS) > 100 µM | GI50 (SR leukemia) > 73.6 µM | GI50 (SW-620 colon) > 100 µM | GI50 (T-47D breast) > 100 µM | GI50 (UACC-257 melanoma) > 100 µM | GI50 (UACC-62 melanoma) > 100 µM | GI50 (UO-31 renal) > 100 µM
